{"source": "patent US8906425B2", "about": "“Stimulation of the synthesis of the activity of an isoform of lysyl oxidase-like LOXL for stimulating the formation of elastic fibers” (BASF Beauty Care Solutions France S.A.S., priority 2003, dated 2014)", "molecules": {"B1": {"name": "IL-1 alpha: cytokine used as positive control at 50 pg/ml (protein, UniProt P01583 113-271, looked up)", "Interleukin-1 alpha": "SAPFSFLSNVKYNFMRIIKYEFILNDALNQSIIRANDQYLTAAALHNLDEAVKFDMGAYKSSKDDAKITVILRISKTQLYVTAQDEDQPVLLKEMPEIPKTITGSETNLLFFWETHGTKNYFTSVAHPNLFIATKQDYWVCLAGGPPSITDFQILENQA"}}, "key": {"LOX mRNA": {"test_system": "LOX mRNA", "experiment": "Real time RT-PCR effectiveness study, LOX mRNA", "assay_type": "cell-based, human", "settings": "active at 5%, 24 hours, adult fibroblasts (donor)"}, "LOXL mRNA": {"test_system": "LOXL mRNA", "experiment": "Real time RT-PCR effectiveness study, LOXL mRNA", "assay_type": "cell-based, human", "settings": "24 hours, adult fibroblasts (donor)", "experimental": "(§1) […] The culture was carried out e.g. in monolayer in 24-well plates, in a defined medium without serum. (Fibroblast Basal Medium). The cells are sown e.g. at 40,000 per cm^2. After the time of placing the actives in contact with the cells (24 hours), the media were removed and the cells were preserved e.g. by dry freezing at −80° C. after a rinsing with phosphate buffer at pH 7.4. At the end of experimentation, the content of mRNA of elastin, of LOXL and of actin is evaluated by an mRNA analysis technique, e.g. by real time RT-PCR. For this, the couples of primers enabling the amplification of specific fragments of these genes are those described above (Example 10).\n(§2) After extraction e.g. with the aid of an extraction kit in 96-wells on silica columns and determination on a 96-well spectrophotometer at 260 nm, the RNAs are diluted e.g. to 5 ng/μl. The RT-PCR reactions (Reverse Polymerase Transcription Chain Reactions) were carried out by quantitative real time RT-PCR with the aid of the “Opticon” system (MJ Research). Advantageously, the reaction mixture (50 μl) introduced into the wells was the following, for each sample: • 10 μl of RNA at a concentration of 5 ng/μl, • The specific primers of the various labels sought after, • Reaction mixture (Qiagen 25 μl 2xQuantiTect SYBR Green RT-PCR master mix containing 5 mM MgCl2+0.5 μl QuantiTect RT mix), the label SYBR Green I inserting in the DNA double strands during the elongation step. […] Analysis and Method of Calculation: The incorporation of fluorescence in the amplified DNA was evaluated continuously during the PCR cycles. This system enabled obtaining curves of fluorescence measurement as a function of the number of PCR cycles and thus enabled evaluating a relative amount of amplified DNA. […] According to the experimentation, the threshold of measurement of the C (T) (=Cycle Threshold) was fixed for T between 0.05 and 0.01, and then an arbitrary measurement unit is calculated for each gene according to the formula: Sgene ? x ? =10^7×(½)^C(T)gene ? ^x ? […]"}, "elastin mRNA [1]": {"test_system": "elastin mRNA", "experiment": "Real time RT-PCR effectiveness study, elastin mRNA", "assay_type": "cell-based, human", "settings": "24 hours, adult fibroblasts (donor)", "experimental": "as §1, §2"}, "elastin mRNA [2]": {"test_system": "elastin mRNA", "experiment": "Positive controls: stimulation of elastin mRNA synthesis by quantitative RT-PCR", "assay_type": "cell-based", "settings": "fibroblasts of normal human skin", "experimental": "(§3) The active principles were tested at 1% (v/v) on fibroblasts of normal human skin (originating from the foreskin of the infant or originating from the adult). The culture was carried out, e.g. in a monolayer on 24-well culture plates, in a defined medium without serum (Fibroblast Basal Medium). The cells were sown, e.g. at 40,000 per cm^2. At the confluence, the cells are placed in contact with the actives advantageously for 24 hours. In parallel, a non-treated control (medium alone) and three positive controls (TGF-β at 1 ng/ml, IL-1α at 50 pg/ml and Phytokine® (Coletica, Lyons, France) at 2% (v/v)) are advantageously carried out, e.g. on the same culture plate. The TGF-β at 1 ng/ml and the IL-1α at 50 pg/ml were tested beforehand and the stimulation of the synthesis of elastin mRNA induced by these two cytokines at these concentrations was verified by an analysis of the mRNAs, e.g. by quantitative RT-PCR (×10 for TGF-β and ×6 for IL-1 alpha). After the time of placing the actives in contact with the cells, e.g. 24 hours, the media are removed and the cells are preserved e.g. by dry freezing at −80° C. after a rinsing in phosphate buffer pH 7.4. The total RNAs are extracted e.g. with the aid of an extraction kit of 96 wells on silica columns and were determined on a 96-well spectrophotometer at 260 nm (purity indicator: protein determination at 280 nm). […]"}, "elastin (Eln) mRNA": {"test_system": "elastin (Eln) mRNA", "experiment": "Screening of active principles by qualitative RT-PCR, elastin mRNA", "assay_type": "cell-based, human", "settings": "actives at 1% (v/v), 24 hours, adult abdomen fibroblasts (donor), mRNA vs actin and non-treated control", "experimental": "as §3"}}, "note": "Marks after values point to notes of the source that are not given here.", "data": [{"molecule": "CCCC(=O)OC", "note": "[methyl butyrate]", "values": [{"measurement": "LOX Control multiplied by:", "setting": "LOX mRNA", "value": 0.91}, {"measurement": "LOXL Control multiplied by:", "setting": "LOXL mRNA; active at 0.01%", "value": 0.89}, {"measurement": "LOXL Control multiplied by:", "setting": "LOXL mRNA; active at 1%", "value": "2.10*"}, {"measurement": "LOXL Control multiplied by:", "setting": "LOXL mRNA; active at 5%", "value": 0.91}, {"measurement": "El Control multiplied by:", "setting": "elastin mRNA [1]; active at 0.01%", "value": 0.92}, {"measurement": "El Control multiplied by:", "setting": "elastin mRNA [1]; active at 0.1%", "value": 0.96}, {"measurement": "El Control multiplied by:", "setting": "elastin mRNA [1]; active at 5%", "value": "1.70*"}]}, {"molecule": "TGF-β [reference compound]", "values": [{"measurement": "stimulation of the synthesis of elastin mRNA (×)", "setting": "elastin mRNA [2]; TGF-β at 1 ng/ml", "value": 10}]}, {"molecule": "ethyl hexenoate", "values": [{"measurement": "Eln Control multiplied by:", "setting": "elastin (Eln) mRNA", "value": 1.5}]}, {"molecule": "B1", "values": [{"measurement": "stimulation of the synthesis of elastin mRNA (×)", "setting": "elastin mRNA [2]; IL-1α at 50 pg/ml", "value": 6}]}]}
